Publication PMC12524617, “Recombinant Production and Characterization of a Novel α-L-Fucosidase from Bifidobacterium castoris” (International Journal of Molecular Sciences, 2025)

Molecular target: T1, commercial T. maritima α-L-fucosidase (Thermotoga maritima, UniProt Q9WYE2)
T1 construct: gene TM_0306; commercial enzyme from Megazyme
T1 sequence (Q9WYE2 1-449): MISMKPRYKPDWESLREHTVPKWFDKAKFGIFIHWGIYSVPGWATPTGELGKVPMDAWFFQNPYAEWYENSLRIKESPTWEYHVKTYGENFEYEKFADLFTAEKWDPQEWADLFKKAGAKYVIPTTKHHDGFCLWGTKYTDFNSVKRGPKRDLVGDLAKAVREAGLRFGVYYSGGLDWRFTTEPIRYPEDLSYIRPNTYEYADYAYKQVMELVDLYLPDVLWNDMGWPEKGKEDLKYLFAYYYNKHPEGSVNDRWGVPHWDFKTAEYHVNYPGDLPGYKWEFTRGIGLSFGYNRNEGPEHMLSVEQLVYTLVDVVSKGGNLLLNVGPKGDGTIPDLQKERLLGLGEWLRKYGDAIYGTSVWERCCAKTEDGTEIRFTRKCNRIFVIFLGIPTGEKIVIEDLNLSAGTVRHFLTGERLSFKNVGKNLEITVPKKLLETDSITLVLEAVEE
Assay: p-nitrophenolate release, absorbance at […] nm
Assay type: biochemical
Settings: positive control enzyme, 1 μg, same conditions, pH 3.0-8.0, 24-42 °C; activity only in figure

C[C@@H]1O[C@@H](Oc2ccc([N+](=O)[O-])cc2)[C@@H](O)[C@H](O)[C@@H]1O [pNP-Fuc, 4-Nitrophenyl-α-L-fucopyranoside] was tested, and the “p-nitrophenolate release, absorbance at 405 nm” value was “-derived α-L-fucosidase was used as a positive control under the same conditions”.
